Test results from EPA's CvTdb concentration-time database.

Columns and labels:
Rat [1] = experiment: concentration in blood after dosing; conditions: dosed: Naphthalene, 1 mg/kg, iv, Female, F344
Rat [2] = experiment: concentration in blood after dosing; conditions: dosed: Naphthalene, 1 mg/kg, iv, Female, F344; remark: listed apart in the source
Rat [3] = experiment: concentration in blood after dosing; conditions: dosed: Naphthalene, 10 mg/kg, iv, Male, F344
Rat [4] = experiment: concentration in blood after dosing; conditions: dosed: Naphthalene, 3 mg/kg, iv, Male, F344
Rat [5] = experiment: concentration in blood after dosing; conditions: dosed: Naphthalene, 10 mg/kg, iv, Male, F344; remark: listed apart in the source
Rat [6] = experiment: concentration in blood after dosing; conditions: dosed: Naphthalene, 1 mg/kg, iv, Male, F344
Rat [7] = experiment: concentration in blood after dosing; conditions: dosed: Naphthalene, 1 mg/kg, iv, Male, F344; remark: listed apart in the source
Rat [8] = experiment: concentration in blood after dosing; conditions: dosed: Naphthalene, iv, F344
Rat [9] = experiment: concentration in blood after dosing; conditions: dosed: Naphthalene, 3 mg/kg, iv, Female, F344
Rat [10] = experiment: concentration in blood after dosing; conditions: dosed: Naphthalene, 3 mg/kg, iv, Male, F344; remark: listed apart in the source
Rat [11] = conditions: dosed: dibromoacetic acid, 40 mg/kg, oral, Male, F344
Rat [12] = conditions: dosed: dibromoacetic acid, 100 mg/kg, oral, Male, F344
Rat [13] = conditions: dosed: dibromoacetic acid, 100 mg/kg, oral, Male, F344; remark: listed apart in the source
Rat [14] = conditions: dosed: dibromoacetic acid, 40 mg/kg, oral, Male, F344; remark: listed apart in the source
Rat [15] = conditions: dosed: dibromoacetic acid, 100 mg/kg, oral, Male, F344; remark: listed apart in the source
Rat [16] = conditions: dosed: dibromoacetic acid, 40 mg/kg, oral, Male, F344; remark: listed apart in the source
rat [17] = experiment: concentration in blood after dosing; conditions: dosed: hexane, 60000 ppm, dermal, duration: 4 hr, male, F344
rat [18] = experiment: concentration in blood after dosing; conditions: dosed: hexane, 60000 ppm, dermal, duration: 4 hr, male, F344; remark: listed apart in the source
rat [19] = experiment: concentration in blood after dosing; conditions: dosed: hexane, 60000 ppm, dermal, duration: 4 hr, male, F344; remark: listed apart in the source
rat [20] = experiment: concentration in blood after dosing; conditions: dosed: hexane, 60000 ppm, dermal, duration: 4 hr, male, F344; remark: listed apart in the source
rat [21] = experiment: concentration in blood after dosing; conditions: dermal, duration: 4 hr, male, F344
rat [22] = experiment: concentration in blood after dosing; conditions: dosed: perchloroethylene, 12500 ppm, dermal, duration: 4 hr, male, F344
rat [23] = experiment: concentration in blood after dosing; conditions: dosed: perchloroethylene, 12500 ppm, dermal, duration: 4 hr, male, F344; remark: listed apart in the source
rat [24] = experiment: concentration in blood after dosing; conditions: dosed: perchloroethylene, 12500 ppm, dermal, duration: 4 hr, male, F344; remark: listed apart in the source

c1ccc2ccccc2c1 [Naphthalene]
concentration in blood [µg/mL]
Conditions	1 h	2 h	2 min	4 h	5 min	6 h	8 h	10 min	20 min	40 min
Rat [1]	0.0212	–	1.74	–	0.548	–	–	0.204	0.0293	0.0343
Rat [2]	–	–	0.0214	–	0.0516	0.0236	–	–	0.0205	–
Rat [3]	0.407	0.172	–	0.0767	8.05	0.0382	–	4.93	2.64	0.839
Rat [4]	0.169	0.0828	–	–	2	–	–	3.69	1.24	0.306
Rat [5]	0.487	0.172	–	0.0902	8.74	0.0473	0.0333	4	2.61	0.661
Rat [6]	0.0362	–	1.39	–	0.701	–	–	0.312	0.127	0.0548
Rat [7]	0.0305	–	1.3	–	0.625	–	–	0.34	0.0825	0.0466
Rat [9]	0.103	0.047	2.87	0.0267	1.9	0.0277	0.0242	0.942	0.468	0.151
Rat [10]	0.133	0.0521	6.89	0.0193	4.77	–	–	2.44	0.736	0.255

concentration in blood [µg/mL], Rat [8]
Conditions	1 mg/kg	3 mg/kg	10 mg/kg
1 h, Female	–	0.08	–
1 h, Male	0.0348	0.172	0.446
2 h, Female	–	0.0351	–
2 h, Male	–	0.233	0.214
2 min, Female	1.33	2.78	–
2 min, Male	3.26	0.26	–
4 h, Male	–	0.0871	0.09
5 min, Female	0.77	1.48	–
5 min, Male	0.677	0.152	11.2
6 h, Male	–	0.0909	0.0585
8 h, Male	–	0.0206	0.0381
10 min, Female	0.407	1.38	–
10 min, Male	0.315	0.215	6.22
12 h, Male	–	–	0.0215
20 min, Female	0.12	0.375	–
20 min, Male	0.107	0.185	2.85
40 min, Female	0.043	0.125	–
40 min, Male	–	0.173	0.86

O=C(O)C(Br)Br [dibromoacetic acid]
amount in urine after dosing [µg]
Conditions	Rat [11]	Rat [12]	Rat [13]	Rat [14]	Rat [15]	Rat [16]
2 h	–	–	–	0.735	17.7	–
4 h	–	55.8	61.7	–	54.6	8.7
8 h	11.7	–	–	–	44.1	3.52
24 h	1.52	81	37.7	4.47	19.1	3.52
48 h	–	5.03	2.24	–	4.62	–

CCCCCC [hexane]
concentration in blood [µg/mL]
Conditions	0.5 h	1 h	2 h	3 h	4 h
rat [17]	1.5	0.0312	–	0.304	0.804
rat [18]	–	0.708	0.112	0.414	–
rat [19]	1.24	0.804	1.1	1.3	0.999
rat [20]	–	0.406	0.812	0.796	0.2

rat [21], dosed: hexane, 60000 ppm
Conditions	concentration in blood [µg/mL]
0.5 h	0.606
1 h	0.903
2 h	0.5

ClC(Cl)=C(Cl)Cl [perchloroethylene]
concentration in blood [µg/mL]
Conditions	0.5 h	1 h	2 h	3 h	4 h
rat [22]	17	45	39.6	31.6	42.6
rat [23]	6.94	32.3	29.9	17.5	32.3
rat [24]	3.61	15.2	19.6	13.9	29.2

rat [21], dosed: perchloroethylene, 12500 ppm
Conditions	concentration in blood [µg/mL]
0.5 h	20.6
1 h	21.1
2 h	21.5
3 h	25.2
4 h	29.2
